For orientation: IC50 means the concentration that gives 50% inhibition.

Data set [1] has as its system pGBMs. The experiment in a line: Combinatorial pharmacodynamics niclosamide and TMZ (alamarBlue). The format is cell-based. Conditions: Homo sapiens; 50 μM TMZ alone, pGBMs n=7, triplicate; read-out: Metabolic activity, % of control levels. As for the experimental part: (§1) For pharmacodynamic analysis, 5×10^4 cells were plated in 12-well-plates at 24 hours before application of compound-series and compound combinations, respectively. alamarBlue®-based analysis was conducted at 3-5 days post treatment. Experiments were performed in triplicates. IMC50 was defined as the compound concentration that reduced the metabolic activity by 50% compared to control conditions and determined via data analysis in GraphPad Prism 4.0.
Background: Alamar Blue is a resazurin reagent that responds to reducing activity.

The subject of a further data set is standard GBM cell lines. Described as above. Format: cell-based. Conditions: Homo sapiens; 50 μM TMZ alone, GBMs (standard cell lines); read-out: Metabolic activity, % of control levels. As for the experimental part:
as §1

The subject of data set [2] is NF-κB-signaling (phospho-p65-NFκB protein). Nature of the data set: Western blot of phospho-p65-NFκB (phospho-RELA). The format is cell-based, human. (A western blot detects proteins with antibodies after separation by electrophoresis.)
Another data set relates to NFKBIA+/− pGBMs. Nature of the data set: Control study with NFκB activator in combinatorial treatment. Format: cell-based, human. Conditions: NFKBIA+/− genotypes; niclo 1 μM, temozolomide 50 μM, TNF-a 50 ng/ml, 3 days. As for the experimental part: FIG. 16: TNF-a antagonizes synergistic activity in NFKBIA+/− pGBMs. Graphs present data from combinatorial treatment paradigms in NFKBIA+/− (black) versus NFKBIA+/+ (gray) pGBMs at 3 days after compound application (niclo, 1 μM; temozolomide, 50 μM; TNF-a, 50 ng/ml). Insets, Western blot analyses of pREL A, indicating NF-kB pathway activity 24 hours after exposure to TNF-a, (Ta; 50 ng/ml) or 0.002% bovine serum albumin (C; control). ***p<0.001; **p<0.01; *p<0.05 (triplicates; mean±SD; one-way ANOVA and Tukey post hoc tests).

The subject of data set [3] is pGBM #046 grafts in Rag2Il2rg−/− mice. Nature of the data set: Orthotopic tumor xenograft of pre-treated cells. Format: in vivo. Conditions: niclosamide pre-treated #046 pGBMs, n=5.
The subject of data set [4] is glioma/GBM cell lines LN229, T98G, U87, U138, U373. Nature of the data set: Pharmacodynamic analysis (alamarBlue dose-response, IC50). Format: cell-based, human. Conditions: defined media (dm) conditions. As for the experimental part:
as §1

Data set [5] relates to #155 non-malignant primary adult human neural progenitor cells (AHNPs). Nature of the data set: Primary drug screening, alamarBlue metabolic activity. The format is cell-based. Conditions: control cells 155; 1 µM niclosamide for 5 days, triplicate. As for the experimental part: (§2) The tested compounds were supplied to cells proliferating in a linear-exponential phase. For all used cell samples, respective titration experiments were conducted before analysis. 24 hours after seeding 2-3×10^3 cells/well into laminin/poly-L-ornithine coated 96-well plates, cells were treated with 1 μM of each compound (stock solution 10 mM in DMSO). Control cells were treated with 0.01-0.1% DMSO. Five days after application, metabolic activity as a measure of cell viability was determined using the alamarBlue® assay according to the manufacturers recommendations (Life Technologies). Fluorescence was measured using an Infinite200 microplate reader (Tecan) at λex=540 nm and λem=590 nm. Experiments were performed in triplicates for each sample.
A library comprising of 160 synthetic and natural toxic substances was used for the screening approach. Four pGBMs, previously shown to maintain patient- and GBM-specific signatures and to contain sub-populations of tumor cells with and without stem cell qualities served as a discovery platform (#'s 023, 035, 046, 106; see (10)). Primary screening was conducted based on the alamarBlue® assay determining the metabolic activity as a measure for cellular viability at day 5 following single application of the library's compounds. […]

For a further data set, the system named is Cyclin D1. Nature of the data set: Western blot of Cyclin D1. The format is cell-based, human. Conditions: 24 hours post application. As for the experimental part: (§3) Cell extracts were prepared at 24 to 144 hours following compound application and processed as described (49). Blot membranes were incubated overnight at 4° C. with antibodies against Cyclin-D1 (1:1000; BD Pharmingen), cleaved-Notch1 (1:1000), or phospho-S6 protein (1:1000; all Cell signaling) respectively. After washing, peroxidase-coupled secondary antibodies (Santa Cruz) were added for 1 hour. After washing, blots were developed using the ECL system (Millipore).

Data set [6] deals with self-renewing, multipotent cells among pGBMs. Nature of the data set: Neurosphere assay. The format is cell-based, human. Conditions: single application 1.5 μM, vital cells collected at day 5.
Data set [7] concerns mTOR signaling (phosphorylated S6-protein). The experiment in a line: Western blot of phospho-S6 protein. Conditions: day 5 after single-dose exposure, 4 pGBMs. Format: cell-based, human. As for the experimental part: as §3
(§4) It is known that a circumscribed number of transcription factors and associated signaling pathways are overactive in human cancer cells (21). […] Characteristic for the active state of this mechanism, known to play an important role for tumor invasion, is an enhanced nuclear accumulation of β-catenin, phosphorylated at Ser^552 (26).

A further data set deals with U87 glioma cell line. Nature of the data set: Primary drug screening, alamarBlue metabolic activity. Conditions: 1 µM niclosamide for 5 days, triplicate. Format: cell-based, human. As for the experimental part: as §2
(§5) A library comprising of 160 synthetic and natural toxic substances was used for the screening approach. Four pGBMs, previously shown to maintain patient- and GBM-specific signatures and to contain sub-populations of tumor cells with and without stem cell qualities served as a discovery platform (#'s 023, 035, 046, 106; see (10)). Primary screening was conducted based on the alamarBlue® assay determining the metabolic activity as a measure for cellular viability at day 5 following single application of the library's compounds. In the experiments, every compound that reduced the mean metabolic activity of the 4 pGBMs below 50% of control levels was considered as a ‘hit’.

The subject of data set [8] is pGBMs (primary glioblastoma cells). Described as above. Format: cell-based, human. Conditions: for Metabolic activity in % of the activity of a control without niclosamide: triplicate. As for the experimental part: as §2, §5
Data set [9] relates to pGBMs. The experiment in a line: Proliferation kinetics / long-term cell growth (CellaVista). Format: cell-based, human.
Data set [10] has as its system pGBMs. The experiment in a line: Cell migration analysis (scratch assay). Format: cell-based, human. Conditions: sub-toxic concentrations, 125 nM. As for the experimental part: 5×10^4 cells were plated into 12-well-plates coated with laminin/poly-L-ornithine. […] Three days after plating (at a cell density of 70%), a scratch/wound was inflicted with a sterile pipette tip. Thereafter, culture media was exchanged to remove non-adherent cells. The Plaque Assay application of the CellaVista® system (Roche Diagnostics) was used according to the manufacturer's instructions to monitor the scratch/wound size over time. Triplicate analysis data±SEM.

For another data set, the system named is WNT/CTNNB1 target genes. Nature of the data set: qRT-PCR of β-catenin target genes. Format: cell-based, human. Conditions: pGBMs.
Source text: as §4

Data set [11] has as its system non-malignant hnNCs (human non-malignant neural cells). The experiment in a line: Pharmacodynamic analysis (alamarBlue dose-response). The format is cell-based. Conditions: three hnNCs, defined culture conditions. As for the experimental part: as §1
A further data set deals with 21 pGBMs. The experiment in a line: Pharmacodynamic analysis (alamarBlue dose-response, IC50). The format is cell-based. Conditions: Homo sapiens, 120 h. As for the experimental part:
as §1

For data set [12] the following is noted: studies in animals; cited from earlier work.
The test system of data set [13] is non-malignant human cell sample #155. The experiment in a line: Annexin V/Hoechst FACS analysis. Format: cell-based. Conditions: 5 days after application. As for the experimental part:
(B) CYCLIN D1 (CCND1)-western blot of cell extracts derived at this time point. […] Inset: mean data (n=5 pGBMs; **p<0.01). […] Right inset: representative scatter plots (#046). […] The graph exemplifies the time course of scratch closure for case #046 (mean±SD; triplicate analysis).
1×10^5 cells were collected at 5 days following compound application, settled by centrifugation, re-suspended in 100 μl AnnexinV buffer and incubated with 5 μl Annexin V-FITC for 1 hour at room temperature. To distinguish between living and dead cells, labeling with 1.2 μg/ml Hoechst 33258 was used Annexin V presence was determined using standard conditions in a LSRII equipped with FACSDiva Software (BD Bioscience). 2×10^4 cells were counted per measurement. The term ‘avital cells’ was used for Annexin V^+−, Annexin V^+/H33258^+, and H33258^+ cells.
In general terms: A flow cytometer gives signals particle by particle.

The subject of data set [14] is pGBMs. The experiment in a line: Annexin V/Hoechst FACS analysis. Conditions: 5 days after application. Format: cell-based, human.
Data set [15] has as its system Notch pathway (cleaved Notch 1-protein). The experiment in a line: Western blot of cleaved Notch 1. The format is cell-based, human. Conditions: day 5 after single-dose exposure, 4 pGBMs. As for the experimental part:
as §3, §4

Another data set has as its system NFKBIA. Nature of the data set: qRT-PCR of NFKBIA expression. The format is cell-based, human. Conditions: NFKBIA+/− pGBMs and standard GBM models under dm conditions. An excerpt: On the other hand, it is known that the inhibition of NF-κB alone may not severely affect most solid tumors, rather that it may help to prevent resistance of cancer cells to chemotherapy (30, 31).

Data set [16] concerns hnNCs co-cultured with pGBMs. The experiment in a line: Co-culture of pGBMs and hnNCs. The format is cell-based, human. Conditions: dm conditions, niclosamide 1 μM.
Data set [17] concerns phospho-β-catenin (Ser552). The experiment in a line: Immunofluorescence of nuclear phospho-β-catenin (Ser552). Format: cell-based, human. Conditions: pGBMs.
Source text: as §4

Data set [18] relates to pGBM #GNV019 grafts in Scid Beige mice. Nature of the data set: Orthotopic tumor xenograft of pre-treated cells. The format is in vivo. Conditions: niclosamide pre-treated #GNV019 cells, single exposure, n=6.

Entries after “also recorded” stand apart in the source; their conditions may differ. Read-outs that look alike come from different tables or passages of the source.

Consider `Cn1nnc2c(C(N)=O)ncn2c1=O` [TMZ, temozolomide], for which the figures for the activity at 50 µM with pGBMs [1] and in the data set on standard GBM cell lines were 94 ± 4% and 89 ± 8%, respectively.
Regarding TNFα, in data set [2] (TNF-a 50 ng/ml, 24 hours), the “NFκB activity in pGBMs” value is “activated NFκB”. Besides, the “Effect on niclosamide/TMZ synergy” value with NFKBIA+/− pGBMs is “counteracted synergy effects”.
Turning to `O=C(Nc1ccc([N+](=O)[O-])cc1Cl)c1cc(Cl)ccc1O` [niclosamide], in data set [3] (10^6 cells into striatum), the “Time after engraftment at which tumors developed / animals distressed” value amounted to 153 ± 23 days. In addition, the “Animals with tumor development” value in [3] is listed as 4/5. Also, the “Niclosamide effects on standard GBM model cell lines under dm conditions” value in data set [4] is listed as “highly similar to findings obtained from pGBMs”. Besides, the “Metabolic activity in % of the activity of a control without niclosamide” value was found to be 75.4% in [5]; 66.5% in the data set on U87 glioma cell line; 32.3% in data set [8] (pGBM 023, 1 µM niclosamide for 5 days); 5.6% in data set [8] (pGBM 035, 1 µM niclosamide for 5 days); 34.6% in data set [8] (pGBM 046, 1 µM niclosamide for 5 days); 33.0% in data set [8] (pGBM 106, 1 µM niclosamide for 5 days). Besides, in the data set with Cyclin D1, the “Cyclin D1 expression” value is “strong decrease”. Also, in [6], the “Frequencies of self-renewing, multipotent (sphere-forming) cells” value is recorded as “reduced the frequencies of self-renewing, multipotent cells among pGBMs strongly”. Also, the “Levels of phosphorylated S6-protein” value in data set [7] is “decrease in all samples”. In data set [2] (pGBMs #046 and #078 (NFKBIA+/−) only, of four cases), the “NF-κB pathway (phospho-p65-NFκB protein levels)” value was “pathway inhibition”. Moreover, the activity at 1 µM in data set [8] (Homo sapiens, 120 h, day 5 after single application, 1 μM of each compound, read-out: Mean metabolic activity of the 4 pGBMs, % of control levels ('hit' criterion)) is less than 50%. In addition, the “Metabolic activity in % of the activity of a control without niclosamide, pGBMs average” value in data set [8] (average of pGBMs 023, 035, 046, 106, 1 µM niclosamide for 5 days) amounted to 26.4%. Also, the “Delay of recovery of vital cells from cytostatic effects (long-term growth)” value in the data set with pGBMs [9] (single application 1.5 μM) fell in the range of 14 to 23 days. The Growth delay in the data set with pGBMs [9] (single exposure, 1.5 μM, pGBMs 046, 078, 106) is recorded as 5 days. In addition, the “Effect on migration (scratch closure)” value in the data set with pGBMs [10] is listed as “anti-migratory effects”. Besides, in the data set on WNT/CTNNB1 target genes, the “Expression of β-catenin target genes” value is “significantly decreased”. The “Sensitivity of non-malignant hnNCs compared with pGBMs” value in data set [11] was “significantly lower level of sensitivity”. Moreover, the IC50 was not below 300 nM in the data set with 21 pGBMs (day 5, read-out: IC50 (50% reduction of relative metabolic activity), lower end of range over 21 pGBMs) and not above 1200 nM in the data set on 21 pGBMs (day 5, read-out: IC50 (50% reduction of relative metabolic activity), upper end of range over 21 pGBMs). For the same molecule, the “Mutagenic, oncogenic, embryotoxic activity and cumulative effects” value in [12] is “no mutagenic, oncogenic, or embryotoxic activity and no cumulative effects”. Moreover, the “Pro-apoptotic effects in non-malignant cells” value in data set [13] is recorded as “lack of pro-apoptotic effects”. For the same molecule, the “Vital cells (pro-apoptotic effect)” value in the data set with pGBMs [14] was “strong and pGBM-selective decrease of vital cells”. In [15], the “Notch pathway activity (cleaved Notch 1-protein levels)” value is “concentration-dependent inhibition”. In the data set with NFKBIA, the NFKBIA expression result is given as “strongly up-regulate”. Besides, the “Sensitivity of hnNCs in co-culture with pGBMs” value in [16] was “lower sensitivity of hnNCs can be confirmed”. The “Nuclear phospho-β-catenin (Ser552) antigen” value in data set [17] is listed as “strong decrease”. Moreover, in data set [18], the “Tumor forming capacity of grafted cells” value was “no animal that received niclosamide pre-treated grafts showed evidence for tumor formation; also recorded: completely extinguished the tumor forming capacity”.

(Values after patent US9844522B2 (LIFE & BRAIN GMBH, priority 2012, dated 2017).)
